{"source": "paper PMC10298626", "about": "(International Journal of Molecular Sciences, 2023)", "assay_type_in_all_cases": "cell-based, Mouse", "key": {"[1]": {"tested_on": "TNF-α", "assay": "TNF-α production (ELISA) in LPS-stimulated RAW264.7 cells", "conditions": "20, 40, and 80 μM; 2 h pretreatment, LPS 500 ng/mL 20 h; concentration-dependent", "procedure": "Macrophages stimulated by pathogens and cytokines are activated and play an important role in regulating the immune response, inflammatory response, and metabolism. LPS-activated RAW264.7 cells were treated with 20, 40, or 80 μM of coumarin derivative 2 and cultured for 24 h, and the levels of TNF-α and IL-6 in the culture medium were analyzed.\nRAW264.7 cells were seeded into 96-well plates and cultured for 24 h. After 2 h of treatment with 20, 40, or 80 μM of coumarin compound derivative 2, the cells were incubated with LPS (500 ng/mL) for 20 h. ELISA kits (R & D Systems, Minneapolis, MN, USA) were used to collect and analyze the cell supernatants for TNF-α and IL-6.\nFigure 3 Effects of coumarin derivative 2 on IL-6 and TNF-α production and mRNA expression in LPS-stimulated RAW264.7 cells. (a) Effect of coumarin derivative 2 on TNF-α and IL-6 production in RAW264.7 cells. The RAW264.7 cells (1 × 10^5/well, 96-well plates) were pretreated with coumarin derivative 2 (20, 40, and 80 μM) for 2 h and incubated with LPS (500 ng/mL) for 20 h. An ELISA kit was used to analyze cell supernatants for TNF-α and IL-6. (b) Effect of coumarin derivative 2 on mRNA expression of IL-6 and TNF-α in RAW264.7 cells. […] IL-6 and TNF-α mRNA expression levels were measured via a real-time quantitative reverse transcription polymerase chain reaction."}, "[2]": {"tested_on": "iNOS", "assay": "iNOS protein expression (immunoblotting) in LPS-stimulated RAW264.7 cells", "conditions": "20, 40, and 80 μM pretreatment 2 h; LPS 500 ng/mL 24 h", "procedure": "(§1) RAW264.7 cells were seeded into 6-well plates (2 × 10^6 cells/well) and incubated for 24 h. The cells were incubated with 20, 40, and 80 μM of coumarin derivative 2 for 2 h, and then LPS (500 ng/mL) was added for 30 min (for phosphorylation of ERK, JNK, p38, and p65) and 24 h (for protein expression of iNOS).\nThe cells were washed with PBS and lysed with radioimmunoprecipitation assay buffer containing 1 mM dithiothreitol (Wako, Tokyo, Japan), phosphatase inhibitor cocktail, 1 mM phenylmethylsulfonylfluoride, 1 mM sodium orthovanadate (Sigma), and 10 mM β-glycerophosphate (Sigma). The extracted proteins were centrifuged at 13,000× g rpm, separated via sodium dodecyl sulfate polyacrylamide gel electrophoresis, and transferred to polyvinylidene fluoride membranes. […] For detection, the antibodies were developed with Super Signal® West Femto Substrate (ThermoFisher, Waltham, MN, USA) and analyzed on a Fusion Solo Chemiluminescence System (Vilber Lourmat, Paris, France) ECL detection system.\nFigure 4 Effect of coumarin derivative 2 on iNOS protein expression in LPS-stimulated RAW264.7 cells. […] (c) RAW264.7 cells (2.0 × 10^6 cells/6 cm dish) were pretreated with coumarin derivative 2 (20, 40, and 80 μM) for 2 h and incubated with LPS (500 ng/mL) for 6 h. iNOS mRNA expression levels were measured via a real-time quantitative reverse transcription polymerase chain reaction. […]"}, "[3]": {"tested_on": "LPS-stimulated RAW264.7 cells", "assay": "NO production (Griess reagent) in LPS-stimulated RAW264.7 cells", "procedure": "A high concentration of NO promotes the synthesis of inflammatory mediators, leading to an inflammatory response, and has been reported to be a cause of various immune diseases. Therefore, this study was conducted to investigate the effect of coumarin derivatives on the production of NO induced by LPS stimulation in RAW264.7 cells. The cells were treated with coumarin derivatives at concentrations of 20, 40, and 80 μM for 2 h. Then, the cells were treated with LPS. After 20 h, the culture supernatant was recovered, and the amount of NO was measured. […] The anti-inflammatory activity of these derivatives depended on the position of the substituted group rather than the electron density of the substituted group.\nThe Griess reagent was used to measure NO production. RAW264.7 cells were seeded into a 96-well plate and cultured for 24 h. The cells were treated with 20, 40, and 80 μM of coumarin derivatives, cultured for 2 h, and then cultured with LPS (500 ng/mL) for 20 h. The same amount of cell supernatant and Griess reagent were used for the reaction, and absorbance was measured at 540 nm."}, "[4]": {"tested_on": "NF-κB p65", "assay": "LPS-induced phosphorylation of NF-κB p65 (immunoblotting) in RAW264.7 cells", "conditions": "20, 40, and 80 μM pretreatment 2 h; LPS 500 ng/mL 30 min", "procedure": "as §1\nThe cells were washed with PBS and lysed with radioimmunoprecipitation assay buffer containing 1 mM dithiothreitol (Wako, Tokyo, Japan), phosphatase inhibitor cocktail, 1 mM phenylmethylsulfonylfluoride, 1 mM sodium orthovanadate (Sigma), and 10 mM β-glycerophosphate (Sigma). The extracted proteins were centrifuged at 13,000× g rpm, separated via sodium dodecyl sulfate polyacrylamide gel electrophoresis, and transferred to polyvinylidene fluoride membranes. Nonspecific proteins were blocked by adding 5% skim milk. After blocking, primary antibodies were incubated overnight at 4 °C. After washing with the PBS-T buffer, the secondary antibodies were treated at room temperature for 2 h. For detection, the antibodies were developed with Super Signal® West Femto Substrate (ThermoFisher, Waltham, MN, USA) and analyzed on a Fusion Solo Chemiluminescence System (Vilber Lourmat, Paris, France) ECL detection system.\nFigure 5 Inhibitory effects of coumarin derivative 2 on LPS-induced phosphorylation of MAPKs and NF-κB p65 in RAW264.7 cells. […]"}}, "note": "Marks after values point to notes of the source that are not given here."}
{"molecule": "N#CC1=C(N)Oc2c(c(=O)oc3ccccc23)C1c1cccc(F)c1", "note": "(centres unmarked) [Coumarin derivative 2]", "values": [{"measurement": "LPS-induced TNF-α level", "setting": "[1]", "result": "significantly reduced"}, {"measurement": "iNOS expression (immunoblot)", "setting": "[2]", "result": "inhibited"}, {"measurement": "NO production, Average", "setting": "[3]; 20 μM for 2 h, then LPS (500 ng/mL) 20 h, LPS alone 25.9, control 3.1", "result": 22.53, "unit": "µM"}, {"measurement": "NO production, Average (μM)", "setting": "[3]; 40 μM for 2 h, then LPS (500 ng/mL) 20 h, LPS alone 25.9, control 3.1", "result": "15.24 *** μM"}, {"measurement": "NO production, Average (μM)", "setting": "[3]; 80 μM for 2 h, then LPS (500 ng/mL) 20 h, LPS alone 25.9, control 3.1", "result": "10.17 *** μM"}, {"measurement": "Anti-inflammatory effect (inhibition of NO secretion), in words", "setting": "[3]; 20, 40, and 80 μM, compared with LPS-only treatment", "result": "inhibited NO secretion in a concentration-dependent manner"}, {"measurement": "IC50", "setting": "[3]; Mus musculus, RAW264.7, read-out: IC50 of NO production inhibition", "result": 33.4, "unit": "µM"}, {"measurement": "p65 phosphorylation", "setting": "[4]", "result": "inhibited"}]}
